{
  "source": "patent US20090227795A1",
  "about": "“TARGET MOLECULES OF PLADIENOLIDES, COMPOUNDS BINDING TO SUCH TARGET MOLECULES, AND SCREENING METHOD THEREOF” (Eisai R & D Management Co., Ltd., priority 2006, published 2009)",
  "key": {"HeLa cells": {"tested_on": "HeLa cells", "experiment": "Observation of intracellular localization of fluorescent probe and competition assay (microscopy, anti-SC-35 staining)", "type": "cell-based", "conditions": "for fluorescence intensity derived from the fluorescent probe after competition (rank order): 1 μM competitor added 1 hour before 1 μM fluorescent probe, lower intensity = stronger competition", "description": "1 μM of the fluorescent probe produced in Example A2 was added to HeLa cells, and the obtained mixture was incubated at 37° C. in an incubator for 1 hour. Thereafter, the medium was removed, and the remaining culture was further cultured for 1 hour in a fresh medium without probes and non-specifically adsorbed compounds were washed. The medium was removed again. The remaining culture was then washed with PBS. Thereafter, the cells were immobilized in 3.7% formaldehyde in PBS.\nThe immobilized cells were well washed with PBS, and were then permeabilized with 0.5% or 1% Triton X-100 in PBS. Thereafter, blocking was carried out with FBS or a blocking solution, and a primary antibody (anti-SC-35 monoclonal antibody; Sigma; S4045) was added to the resultant, so as to carry out a reaction. The reaction product was washed with PBS, and blocking was carried out again with FBS or a blocking solution. A fluorescent-labeled secondary antibody (TexasRed-labeled; Jackson) was added to the resultant, so as to carry out a reaction. The labeled sample was rapidly rinsed with distilled water, and it was then encapsulated into a Prolong antifade reagent (Molecular Probes). Localization of the fluorescent probe and the anti-SC-35 antibody was observed under a fluorescence microscope (DeltaVision, Applied Precision, Inc.) or a confocal microscope (LSM510; Carl Zeiss).\nFurthermore, pladienolides or the derivatives thereof were used in the aforementioned experimental operations to carry out a competition assay. That is, before addition of the fluorescent probe, 1 μM pladienolides or the derivatives thereof were added to the cells, and the obtained mixture was then cultured for 1 hour. Thereafter, the same above operations for immobilization and staining were performed on the culture, followed by observation with a microscope, so as to confirm localization of the fluorescent probe."}, "[1]": {"tested_on": "human breast cancer cells MDA-MB-468", "experiment": "Intracellular distribution of tritium probe compound (cell fractionation, cold inhibition, charcoal assay)", "type": "cell-based", "description": "The tritiated probe compound produced in Example A1 was added to human breast cancer cells MDA-MB-468 (ATCC HTB-132) cultured on a 15-cm dish (>80% confluent), resulting in a concentration of 3 to 30 nM. The obtained mixture was then cultured in an incubator at 37° C. for 1 hour. After removing the medium, the culture was then washed with a Hanks' balanced salt solution (10 ml×2). Then, 3 ml of a 10% glycerol hypotonic buffer (10% glycerol, 20 mM NaCl, 1 mM EDTA, 10 mM Tris-HCl, pH=7.8, protease inhibitor cocktail) was added to the resultant. The obtained mixture was left at rest for a while, and the cells were then recovered using a cell scraper. A cell lysate was prepared using a Dounce homogenizer.\nThe lysate was centrifuged at 2,000 g at 4° C. for 10 minutes, so as to obtain a supernatant (2000 g-sup.) and a precipitate (2000 g-pellet). 2000 g-sup. was further centrifuged at 100,000 g at 4° C. for 60 minutes, so as to obtain a cytosol fraction as a supernatant, and a membrane fraction as a precipitate. 2000 g-pellet was suspended in 0.5 M NaCl, and the suspension was then left at rest for 30 minutes under cooling on ice, so as to elute a nuclear protein. Thereafter, centrifugation was carried out at 3,000 g at 4° C. for 10 minutes, so as to obtain a nuclear fraction as a supernatant, and a nuclear pellet as a precipitate.\nThe radioactivity of a tritium probe existing in each fraction was measured by the following method. That is, each of the cytosol fraction and the nuclear fraction was uniformly mixed with Hionic-Fluor (Perkin Elmer). On the other hand, each of the membrane fraction and the nuclear pellet was dissolved in Soluene-350 (Packard) (1 ml), and the obtained solution was then mixed with Hionic-Fluor. The radioactivity of each mixture was measured with a liquid scintillation counter.\nAt the same time, a radioisotope-non-labeled-pladienolide was used to carry out a cold inhibition experiment. That is, the cells were treated with a pladienolide having a concentration (0.15 to 1.5 μM) that was 50 times higher than the tritium probe treatment concentration, and they were then cultured at 37° C. in an incubator for 1 hour. Thereafter, the culture was treated with a tritium probe, and each fraction was prepared. Then, the radioactivity thereof was measured.\nThat is, 1/10 vol. (volume ratio) of a 10% activated charcoal suspension was added to each of the cytosol fraction and the nuclear fraction, followed by a treatment with a vortex for several seconds. The resultant was centrifuged at 15,000 rpm at 4° C. for 5 minutes (TOMY mini MX-15), and the radioactivity of the supernatant was measured in the same manner as that described above."}, "SAP145 or SAP130": {"biological_target": "T1, SAP145 or SAP130 (Homo sapiens, UniProt O75533+Q15393+Q7RTV0)", "T1 construct": "endogenous in cells; host or cells: MDA-MB-468 (nuclear fraction, immunoprecipitate)", "experiment": "Detection of bound protein by treatment with photoaffinity biotin probe (immunoprecipitation, UV crosslinking, streptavidin-HRP)", "type": "binding", "conditions": "1.5 μM probe, MDA-MB-468 2000 g-pellet, all antibodies, SDS-PAGE", "description": "2000 g-pellet was prepared from MDA-MB-468 cells by the method described in Example B1. This pellet was suspended in a CSK buffer (300 mM sucrose, 100 mM NaCl, 3 mM MgCl2, 10 mM PIPES, pH=7.0, protease inhibitor cocktail), and the obtained suspension was then treated with the 1.5 μM photoaffinity biotin probe synthesized in Example A3. The suspension was left at rest at 4° C. for 1 hour, and it was then centrifuged at 2000 g at 4° C. for 10 minutes. The supernatant was removed, and a nuclear fraction was then prepared from the obtained precipitate by the same method as that described in Example B1. Thereafter, an immunoprecipitation solution was prepared by the sable method as that described in Example B4.\nUV (365 nm and 302 nm) was applied to the obtained immunoprecipitate (agarose resin), and a crosslinking reaction was carried out. An SDS […] buffer was added to the reaction product, and the obtained mixture was then stirred with a vortex, followed by boiling at 99° C. for 10 minutes, so as to elute the immunoprecipitated proteins. The eluant was subjected to SDS-PAGE and blotting onto a PVDF membrane in accordance with common methods. Thereafter, the resultant was treated with streptavidin-HRP, so as to detect probe-bound proteins. […]"}, "SAP130": {"biological_target": "T2, SAP130 (Homo sapiens, UniProt O75533+Q15393+Q7RTV0)", "T2 construct": "expressed in transfected cells", "experiment": "Detection of band shift using GFP-fused SAP145 or GFP-fused SAP130 proteins with photoaffinity biotin probe", "type": "binding", "conditions": "1.5 μM probe, HeLa cells stably expressing GFP-SAP145 or GFP-SAP130, band shift", "description": "SAP145 and SAP130, which were considered to be target molecules, were detected in almost the same position on SDS-PAGE. Thus, strains stably expressing a GFP-fused SAP145 or GFP-fused SAP 130 protein were prepared, and an experiment was then […] out using a photoaffinity biotin probe.\nA 1.5 μM photoaffinity biotin probe was added to HeLa cells stably expressing GFP-SAP145, and the obtained mixture was then cultured for 1 hour. After washing the cells with PBS, M-PER (PIERCE) was then added thereto, followed by stirring at 4° C. for 1 hour. Thereafter, 1/10 vol. of 1.5 M NaCl-0.5% Tween 20 solution was added to the reaction solution, and the obtained mixture was then treated with a vortex (10 sec.×3). The resultant was centrifuged at 15,000 rpm at 4° C. for 5 minutes (TOMY MX-15). The thus obtained supernatant was filtrated with a 0.45-μm membrane, and the filtrate was used in the following immunoprecipitation experiment. […]\nMoreover, using the same samples. SAP145 and SAP130 were detected with the SAP145 antibody and the SAP130 antibody, respectively.\nFurthermore, an agarose resin prepared from probe-untreated cells was treated with a probe in the aforementioned experimental operations. Thereafter, UV irradiation and elution of a protein were carried out by the same operations as above, and it was examined whether or not the same band was detected in the obtained sample. […]"}, "U2 snRNP complex": {"biological_target": "T3, U2 snRNP complex (Homo sapiens, UniProt O75533+Q15393+Q7RTV0)", "T3 construct": "endogenous in cells; host or cells: MDA-MB-468", "experiment": "Immunoprecipitation experiment of nuclear fraction prepared from tritium probe-treated cells", "type": "binding", "conditions": "30 nM probe, MDA-MB-468 nuclear fraction, TMG, U1A/U2B″, SM BB′ & D1, SAP155, SAP145, cyclin E antibodies", "description": "MDA-MB-468 cells were cultured in the presence of a 30 nM tritium probe for 1 hour. Thereafter, a nuclear fraction was prepared by the same method as that described in Example B1. A dilution buffer was added to the nuclear fraction to a final concentration of 0.15 M NaCl, 0.05% CA-630 and 40 mM tris-HCl (pH=7.5), so as to prepare an immunoprecipitation solution.\nTo this solution, each of antibodies reacting with splicing factors, transcriptional factors, or molecules associated with such factors were added to a concentration of 1 μg/ml. The obtained mixture was slowly stirred for approximately 12 hours in a low-temperature chamber of 4° C., using a sample rotator. Thereafter, 20 μl of 50% Protein A/G-agarose conjugate suspension was added to the reaction solution, and the obtained mixture was further stirred for 2 hours in the low-temperature chamber.\nThe agarose resin was recovered, and it was then washed with a washing solution (0.15 M NaCl, 0.05% CA-630, 20 mM tris-HCl, pH=7.5). An SDS sample buffer was added to the resultant solution, and the obtained mixture was then stirred with a vortex. The reaction solution was boiled at 99° C. for 10 minutes, so as to elute the immunoprecipitated protein. The eluant was mixed homogeneously with Hionic-Fluor, and the radioactivity of a tritium probe existing in the eluant was then measured with a liquid scintillation counter."}},
  "data": [
    {"compound": "CCC(O)C(C)C1OC1CC(C)/C=C/C=C(\\C)C1OC(=O)CC(O)CCC(C)(O)C(OC(C)=O)/C=C/C1C", "note": "(centres unmarked) [pladienolide B, reference compound]", "values": [
      {"measurement": "fluorescence intensity derived from the fluorescent probe after competition (rank order)", "setting": "HeLa cells", "value": "pladienolide A >non-labeled tritium probe compound >pladienolides B and D"},
      {"measurement": "radioactivity of tritium probe after pre-treatment with non-labeled pladienolide (cold inhibition)", "setting": "[1]; pre-treatment at 50 times the tritium probe concentration (0.15 to 1.5 μM), 1 hour", "value": "almost completely disappeared"}
    ]},
    {"compound": "pladienolide D", "values": [
      {"measurement": "fluorescence intensity derived from the fluorescent probe after competition (rank order)", "setting": "HeLa cells", "value": "pladienolide A >non-labeled tritium probe compound >pladienolides B and D"}
    ]},
    {"compound": "CCC(O)C(C)C1OC1CC(C)C=CC=C(C)C1OC(=O)CC(O)CCC(C)(O)C(OC(=O)NCCOCCOCCNC(=O)CCCCC2=[N+]3C(=Cc4c(C)cc(C)n4[B-]3(F)F)C=C2)C=CC1C", "note": "(centres unmarked) [fluorescent probe, 7-(N-(2-(2-(2-(N-(5-(5,5-difluoro-7,9-dimethyl-5H-dipyrrolo[1,2-c:2′,1′-f][1,3,2]diazaborinin-4-ium-5-uid-3-yl)pentanoyl)amino)ethoxy)ethoxy)ethyl)carbamoyloxy)-3,6,21-trihydroxy-6,10,12,16,20-pentamethyl-18,19-epoxytricosa-8,12,14-trien-11-olide]", "values": [
      {"measurement": "intracellular localization of fluorescent probe", "setting": "HeLa cells; 1 μM probe, 1 hour, co-staining with anti-SC-35 antibody", "value": "mainly localized in granular structures in the nuclei"}
    ]},
    {"compound": "CCC(O)C(C)C1OC1CC(C)/C=C/C=C(\\C)C1OC(=O)CC(O)CCC(C)(O)C(OC(=O)NCCCC[C@H](NC(=O)c2ccc(C3(C(F)(F)F)NN3)cc2)C(=O)N(C)CCN(C)C(=O)CCCC[C@@H]2SC[C@@H]3NC(=O)N[C@@H]32)/C=C/C1C", "note": "(stereo partly drawn) [photoaffinity biotin probe, (8E,2E,14E)-3,621-trihydroxy-6,10,12,16,20-pentamethyl-7-(N-((5S)-6-(N-methyl-N-(2-(N-methyl-N-(5-((3aS,4S,6aR)-2-oxohexahydro-1H-thieno[3,4-d]imidazol-4-yl)pentanoyl)amino)ethyl)amino)-6-oxo-5-(N-(4-(3-(trifluoromethyl)-3H-diaziren-3-yl)benzoyl)amino)hexyl)carbamoyloxy)-18,19-epoxytricosa-8,12,14-trien-11-olide]", "values": [
      {"measurement": "position of band of probe-bound protein", "setting": "SAP145 or SAP130", "value": "130-140 kDa"},
      {"measurement": "protein to which the probe has bound", "setting": "SAP130", "value": "not SAP145 but SAP130"}
    ]},
    {"compound": "CCC(O)C(C)C1OC1CC(C)/C=C/C=C(\\C)C1OC(=O)CC(O)CCC(C)(O)C(O)/C=C/C1C", "note": "(centres unmarked) [pladienolide A]", "values": [
      {"measurement": "fluorescence intensity derived from the fluorescent probe after competition (rank order)", "setting": "HeLa cells", "value": "pladienolide A >non-labeled tritium probe compound >pladienolides B and D"}
    ]},
    {"compound": "(8E,12E,14E)-7-(N—[G-^3H]ethylcarbamoyloxy)-3,6,21-trihydroxy-6,10,12,16,20-pentamethyl-18,19-epoxytricosa-8,12,14-trien-11-olide [tritium probe]", "values": [
      {"measurement": "radioactivity of tritium probe existing in each cell fraction", "setting": "[1]; MDA-MB-468 cells, probe 3 to 30 nM, 1 hour, cytosol, membrane, nuclear fraction, nuclear pellet", "value": "highest radioactivity of the tritium probe was detected in the nuclear fraction"},
      {"measurement": "radioactivity of the cytosol fraction after treatment with activated charcoal", "setting": "[1]; charcoal assay, cytosol fraction", "value": "almost all the radioactivity of the cytosol fraction disappeared"},
      {"measurement": "radioactivity in the nuclear fraction after treatment with activated charcoal", "setting": "[1]; charcoal assay, nuclear fraction", "value": "did not disappear"},
      {"measurement": "radioactivity of tritium probe co-immunoprecipitated with antibodies", "setting": "U2 snRNP complex", "value": "specific radioactivity was observed"}
    ]}
  ]
}
